# Measured values taken from article PMC5935597 (Bioorganic & medicinal chemistry, 2018).
# Where two headings read alike, the source gives them in different places.
# Columns and labels:
# [1] = system: C. neoformans (H99 strain); settings: read-out: C. neoformans (H99 strain) IC50; cited from earlier work
# H. capsulatum [2] = settings: read-out: H. capsulatum IC50; cited from earlier work
# Candida albicans = settings: cited from earlier work
# Aspergillus fumigatus = settings: cited from earlier work
# [3] = system: C. neoformans (H99 strain); experiment: microbe, parasite or virus in culture; format: cell-based, Cryptococcus neoformans
# H. capsulatum [4] = format: cell-based, Histoplasma capsulatum; settings: for times more active than 41F5 against H. capsulatum: relative to 41F5; for activity against H. capsulatum evaluated comparatively at pH 5 and pH 7: pH 5 versus pH 7 (SM-S.2)
# Blastomyces dermatitidis = settings: cited from earlier work
smiles,measurement,setting,value
O=C(CCC1CCCCC1)Nc1ncc(Cc2cccc3ccccc23)s1 [A],IC50,[1],> 10000 nM
same,IC50,H. capsulatum [2],400 nM
Cc1ccc(Oc2ccccc2-c2csc(N=C3NCCCN3)n2)c(C)c1 [Abafungin],activity against Candida albicans,Candida albicans,active
same,activity against Aspergillus fumigatus,Aspergillus fumigatus,active
O=C(Nc1ncc(Cc2ccccc2)s1)C1CCCCC1 [B],IC50,H. capsulatum [2],1600 nM
O=C(CCC1CCCCC1)Nc1ncc(Cc2ccccc2)s1 [C],IC50,[1],> 10000 nM
same,IC50,H. capsulatum [2],700 nM
O=C(Nc1ncc(Cc2cccc3ccsc23)s1)C1CCCCC1 [Compound 17b],times more active than 41F5 against C. neoformans,[3],~ 2 times
same,times more active than 41F5 against H. capsulatum,H. capsulatum [4],~ 2 times
O=C(CCC1CCCCC1)Nc1ncc(Cc2cccc3nsnc23)s1 [Compound 20a],activity against C. neoformans evaluated comparatively at pH 5 and pH 7,[3],No significant differences
same,activity against H. capsulatum evaluated comparatively at pH 5 and pH 7,H. capsulatum [4],No significant differences
O=C(CCC1CCCCC1)Nc1ncc(Cc2cccc3sccc23)s1 [Compound 22a],times more active than 41F5 against H. capsulatum,H. capsulatum [4],~ 2 times
O=C(Nc1ncc(Cc2cccc3sccc23)s1)C1CCCCC1 [Compound 22b],times more active than 41F5 against C. neoformans,[3],~ 2 times
same,IC50,"[3]; Cryptococcus neoformans, read-out: C. neoformans (H99 strain) IC50 [±SD]",370 nM
same,MIC,"[3]; Cryptococcus neoformans, read-out: C. neoformans (H99 strain) MIC",1.25 µM
same,times more active than 41F5 against H. capsulatum,H. capsulatum [4],~ 2 times
O=C(CCC1CCCCC1)Nc1ncc(Cc2csc3ccccc23)s1 [Compound 23a],times more active than 41F5 against H. capsulatum,H. capsulatum [4],~ 2 times
O=C(Nc1ncc(Cc2cccc3c2CCC3)s1)C1CCCCC1 [Compound 26b],times more active than 41F5 against C. neoformans,[3],~ 2 times
same,times more active than 41F5 against H. capsulatum,H. capsulatum [4],~ 2 times
O=C(CCC1CCCCC1)Nc1ncc(Cc2ccnc3ccccc23)s1 [Compound 28a],activity against C. neoformans evaluated comparatively at pH 5 and pH 7,[3],No significant differences
same,activity against H. capsulatum evaluated comparatively at pH 5 and pH 7,H. capsulatum [4],No significant differences
O=C(CCC1CCCCC1)Nc1ncc(Cc2ccccn2)s1 [Compound 29a],activity against C. neoformans evaluated comparatively at pH 5 and pH 7,[3],No significant differences
same,activity against H. capsulatum evaluated comparatively at pH 5 and pH 7,H. capsulatum [4],No significant differences
O=C(Nc1ncc(Cc2cccnc2)s1)C1CCCCC1 [Compound 31],activity against C. neoformans evaluated comparatively at pH 5 and pH 7,[3],No significant differences
same,activity against H. capsulatum evaluated comparatively at pH 5 and pH 7,H. capsulatum [4],No significant differences
O=C(CCC1CCCCC1)Nc1ncc(Cc2ccncc2)s1 [Compound 32a],activity against C. neoformans evaluated comparatively at pH 5 and pH 7,[3],No significant differences
same,activity against H. capsulatum evaluated comparatively at pH 5 and pH 7,H. capsulatum [4],No significant differences
O=C(c1cnc(NC(=O)C2CCCCC2)s1)c1cccc2ccccc12 [Compound 36b],times more active than 41F5 against H. capsulatum,H. capsulatum [4],~ 2 times
"O=C(Nc1ncc(Cc2cccc3ccccc23)s1)C1CCCCC1 [Compound 41F5, N-[5-(1-naphthalenylmethyl)-2-thiazolyl]cyclohexanecarboxamide]",activity against Blastomyces dermatitidis,Blastomyces dermatitidis,inactive
same,IC50,[1],400 nM
same,activity against Candida albicans,Candida albicans,inactive
same,IC50,H. capsulatum [2],400 nM
same,activity against Aspergillus fumigatus,Aspergillus fumigatus,inactive
